# In BindingDB's records for doi:10.1016/0968-0896(96)00130-7 (Sankyo, 1996):
# Target: T1, Dimer of Gag-Pol polyprotein [489-587] (Human immunodeficiency virus 1, UniProt P12497)
# T1 construct: 489-587
# Assay: Protease Inhibition Assay
# Conditions: pH 4.7; 37 °C
# Protocol: The inhibitory activities of the compounds toward HIV-1 PR were determined by sodium dodecyl sulfate-polyacrylamide gel electrophoresis (SDS-PAGE) assay. The Ki values of active compounds were determined using the partially purified protease and the synthetic substrate Ac-Ser-Gln-AsnTyr-Pro-Ile-Val-NH2.
row,SMILES,Ki [nM]
1,"Cn1cc(C(=O)N[C@@H](CC(N)=O)C(=O)N[C@@H](Cc2ccccc2)[C@H](O)C(=O)N2C[C@@H](Cl)C[C@H]2C(=O)NC(C)(C)C)c2ccccc21 [(1-Methylindole-3-carbonyl)- Asn - (2S,3S)-AHPBA-[4(S)-chloro]Pro tert-butylamide]",20
2,"CC(C)(C)NC(=O)[C@@H]1C[C@H](Cl)CN1C(=O)[C@@H](O)[C@H](Cc1ccccc1)NC(=O)[C@H](CC(N)=O)NC(=O)c1noc2ccccc12 [(2S)-2-(1,2-benzoxazol-3-ylformamido)-N-[(2S,3S)-4-[(2S,4S)-2-(tert-butylcarbamoyl)-4-chloropyrrolidin-1-yl]-3-hydroxy-4-oxo-1-phenylbutan-2-yl]butanediamide]",28
3,"Cn1nc(C(=O)N[C@@H](CC(N)=O)C(=O)N[C@@H](Cc2ccccc2)[C@H](O)C(=O)N2C[C@@H](Cl)C[C@H]2C(=O)NC(C)(C)C)c2ccccc21 [(2S)-N-[(2S,3S)-4-[(2S,4S)-2-(tert-butylcarbamoyl)-4-chloropyrrolidin-1-yl]-3-hydroxy-4-oxo-1-phenylbutan-2-yl]-2-[(1-methyl-1H-indazol-3-yl)formamido]butanediamide]",16
4,"CC(C)(C)NC(=O)[C@@H]1C[C@H](Cl)CN1C(=O)[C@@H](O)[C@H](Cc1ccccc1)NC(=O)[C@H](CC(N)=O)NC(=O)c1cc2cc(F)ccc2[nH]1 [(2S)-N-[(2S,3S)-4-[(2S,4S)-2-(tert-butylcarbamoyl)-4-chloropyrrolidin-1-yl]-3-hydroxy-4-oxo-1-phenylbutan-2-yl]-2-[(5-fluoro-1H-indol-2-yl)formamido]butanediamide]",12.5
5,"COc1ccc2[nH]c(C(=O)N[C@@H](CC(N)=O)C(=O)N[C@@H](Cc3ccccc3)[C@H](O)C(=O)N3C[C@@H](Cl)C[C@H]3C(=O)NC(C)(C)C)cc2c1 [(2S)-N-[(2S,3S)-4-[(2S,4S)-2-(tert-butylcarbamoyl)-4-chloropyrrolidin-1-yl]-3-hydroxy-4-oxo-1-phenylbutan-2-yl]-2-[(5-methoxy-1H-indol-2-yl)formamido]butanediamide]",21.5
6,"COc1cccc2cc(C(=O)N[C@@H](CC(N)=O)C(=O)N[C@@H](Cc3ccccc3)[C@H](O)C(=O)N3C[C@@H](Cl)C[C@H]3C(=O)NC(C)(C)C)oc12 [(2S)-N-[(2S,3S)-4-[(2S,4S)-2-(tert-butylcarbamoyl)-4-chloropyrrolidin-1-yl]-3-hydroxy-4-oxo-1-phenylbutan-2-yl]-2-[(7-methoxy-1-benzofuran-2-yl)formamido]butanediamide]",4.5
7,"CC(C)(C)NC(=O)[C@@H]1C[C@H](Cl)CN1C(=O)[C@@H](O)[C@H](Cc1ccccc1)NC(=O)[C@H](CC(N)=O)NC(=O)c1cnc2ccccc2n1 [(Quinoxaline-2-carbonyl)-Asn-(2S,3S)-AHPBA-[4(S)-chloro]Pro tert-butylamide]",4.7
8,"CC(C)(C)NC(=O)[C@@H]1CC(F)CN1C(=O)[C@@H](O)[C@H](Cc1ccccc1)NC(=O)[C@H](CC(N)=O)NC(=O)OCc1ccccc1 (stereo partly drawn) [Z-Asn-(2S,3S)-AHPBA-[4(S)-fluoro] Pro tert-butylamide]",18
9,"CC(C)(C)NC(=O)[C@@H]1CC(Br)CN1C(=O)[C@@H](O)[C@H](Cc1ccccc1)NC(=O)[C@H](CC(N)=O)NC(=O)OCc1ccccc1 (stereo partly drawn) [Z-Asn-(2S,3S)-AHPBA.[4(S)-bromo]Pro tert-butylamide]",22.5
10,"CC(C)(C)NC(=O)[C@@H]1C[C@@H](Cl)CN1C(=O)[C@@H](O)[C@H](Cc1ccccc1)NC(=O)[C@H](CC(N)=O)NC(=O)OCc1ccccc1 [Z-Asn-(2S,3S).AHPBA. [4(R ).chloro] Pro tert-butylamide]",90
11,"CC(C)(C)NC(=O)[C@@H]1CC(=O)CN1C(=O)[C@@H](O)[C@H](Cc1ccccc1)NC(=O)[C@H](CC(N)=O)NC(=O)OCc1ccccc1 [Z-Asn.(2S,3S)-AHPBA.(4.oxo)Pro tert-butylamide]",12.5
12,"CC(C)(C)NC(=O)[C@@H]1[C@@H](Cl)CCN1C(=O)[C@@H](O)[C@H](Cc1ccccc1)NC(=O)[C@H](CC(N)=O)NC(=O)OCc1ccccc1 [Z-Asn.(2S,3S)-AHPBA.[3(S)-chloro]Pro tert-butylamide]",14.5
13,"CC(C)(C)NC(=O)[C@@H]1CC(O)CN1C(=O)[C@@H](O)[C@H](Cc1ccccc1)NC(=O)[C@H](CC(N)=O)NC(=O)OCc1ccccc1 (stereo partly drawn) [Z.Asn-(2S,3S)-AHPBA-[4(S)-hydroxy]Pro tert-butylamide]",1
14,"CC(C)(C)NC(=O)[C@@H]1CC(Sc2ccccc2)CN1C(=O)[C@@H](O)[C@H](Cc1ccccc1)NC(=O)[C@H](CC(N)=O)NC(=O)OCc1ccccc1 (stereo partly drawn) [Z.Asn-(2S,3S)-AHPBA-[4(S)-phenylthio]Pro tert-butylamide]",125
15,"CC(C)(C)NC(=O)[C@@H]1[C@@H](O)CCN1C(=O)[C@@H](O)[C@H](Cc1ccccc1)NC(=O)[C@H](CC(N)=O)NC(=O)OCc1ccccc1 [Z.Asn-(2S,3S).AHPBA.[3(S)-hydroxy]Pro tert-butyl-amide]",32
16,"CC(C)(C)NC(=O)[C@@H]1C(O)CCN1C(=O)[C@@H](O)[C@H](Cc1ccccc1)NC(=O)[C@H](CC(N)=O)NC(=O)OCc1ccccc1 (stereo partly drawn) [benzyl N-[(1S)-1-{[(2S,3S)-4-[(2S)-2-(tert-butylcarbamoyl)-3-hydroxypyrrolidin-1-yl]-3-hydroxy-4-oxo-1-phenylbutan-2-yl]carbamoyl}-2-carbamoylethyl]carbamate]",0.1
17,"CC(C)(C)NC(=O)[C@@H]1CC(F)(F)CN1C(=O)[C@@H](O)[C@H](Cc1ccccc1)NC(=O)[C@H](CC(N)=O)NC(=O)OCc1ccccc1 [benzyl N-[(1S)-1-{[(2S,3S)-4-[(2S)-2-(tert-butylcarbamoyl)-4,4-difluoropyrrolidin-1-yl]-3-hydroxy-4-oxo-1-phenylbutan-2-yl]carbamoyl}-2-carbamoylethyl]carbamate]",35
18,"COC1(OC)C[C@@H](C(=O)NC(C)(C)C)N(C(=O)[C@@H](O)[C@H](Cc2ccccc2)NC(=O)[C@H](CC(N)=O)NC(=O)OCc2ccccc2)C1 [benzyl N-[(1S)-1-{[(2S,3S)-4-[(2S)-2-(tert-butylcarbamoyl)-4,4-dimethoxypyrrolidin-1-yl]-3-hydroxy-4-oxo-1-phenylbutan-2-yl]carbamoyl}-2-carbamoylethyl]carbamate]",92
19,"CC(C)(C)NC(=O)[C@@H]1CC(N2CCOCC2)CN1C(=O)[C@@H](O)[C@H](Cc1ccccc1)NC(=O)[C@H](CC(N)=O)NC(=O)OCc1ccccc1 (stereo partly drawn) [benzyl N-[(1S)-1-{[(2S,3S)-4-[(2S)-2-(tert-butylcarbamoyl)-4-(morpholin-4-yl)pyrrolidin-1-yl]-3-hydroxy-4-oxo-1-phenylbutan-2-yl]carbamoyl}-2-carbamoylethyl]carbamate]",1
20,"CC(C)(C)NC(=O)[C@@H]1CC(Cl)CN1C(=O)[C@@H](O)[C@H](Cc1ccccc1)NC(=O)[C@H](CC(N)=O)NC(=O)OCc1ccccc1 (stereo partly drawn) [benzyl N-[(1S)-1-{[(2S,3S)-4-[(2S)-2-(tert-butylcarbamoyl)-4-chloropyrrolidin-1-yl]-3-hydroxy-4-oxo-1-phenylbutan-2-yl]carbamoyl}-2-carbamoylethyl]carbamate]",8
21,"CC(C)(C)NC(=O)[C@@H]1CCCN1C(=O)[C@@H](O)[C@H](Cc1ccccc1)NC(=O)[C@H](CC(N)=O)NC(=O)OCc1ccccc1 [benzyl N-[(1S)-1-{[(2S,3S)-4-[(2S)-2-(tert-butylcarbamoyl)pyrrolidin-1-yl]-3-hydroxy-4-oxo-1-phenylbutan-2-yl]carbamoyl}-2-carbamoylethyl]carbamate]",57.5
22,"CC(C)(C)NC(=O)[C@@H]1C[C@@H](O)CN1C(=O)[C@@H](O)[C@H](Cc1ccccc1)NC(=O)[C@H](CC(N)=O)NC(=O)OCc1ccccc1 [benzyl N-[(1S)-1-{[(2S,3S)-4-[(2S,4R)-2-(tert-butylcarbamoyl)-4-hydroxypyrrolidin-1-yl]-3-hydroxy-4-oxo-1-phenylbutan-2-yl]carbamoyl}-2-carbamoylethyl]carbamate]",56
